Test results reported in patent publication US11560596B2, “Method for expecting and diagnosing UQCRB-related disease” (Industry-Academic Cooperation Foundation, Yonsei University, priority 2015, dated 2023).

System: UQCRB mutant cell strains MT1 and MT2
Assay: MTT colorimetric assay of cell growth after treatment with cholesterol synthesis inhibitors
Assay type: cell-based
Conditions: FIGS. 11 to 13
From the text: FIG. 11 represents MTT colorimetric assay showing the cell growth of HEK293, MT1, and MT2 cells treated with a cholesterol inhibitor.
FIG. 12 represents MTT colorimetric assay showing the cell growth of HEK293, MT1, and MT2 cells treated with a cholesterol inhibitor.
FIG. 13 represents MTT colorimetric assay showing the cell growth of HEK293, MT1, and MT2 cells treated with a cholesterol inhibitor.
For the purpose of verifying validity for selection of cholesterol metabolic process as a pathway in which UQCRB was participated, a cholesterol synthesis inhibitor was processed in UQCRB mutant cell strains to measure an effect that the cholesterol synthesis inhibitor affects growth of the UQCRB mutant cell strains, and the result thereof was shown in FIGS. 11 to 13.

Structure (SMILES)	growth of the UQCRB mutant cell strains MT1 and MT2
F/C(COc1ccc2c(c1)[nH]c1ccccc12)=C1/CN2CCC1CC2 [YM-53601]	inhibited
CC[C@H](C)C(=O)O[C@H]1CCC=C2C=C[C@H](C)[C@H](CC[C@@H]3C[C@@H](O)CC(=O)O3)[C@H]21 [Mevastatin]	inhibited
